Square brackets hold non-standard residues; d marks the D form. Ends that are not written are not given here. Peptide text beside a SMILES is read from it. * marks the point of attachment. Palmitoyl = CCCCCCCCCCCCCCCC(=O)*
Assays:
[1] = test system: human epidermal progenitors; assay: MTT cell proliferation, epidermal progenitors; type: cell-based
Method: Proliferation rates were determined using a TACS® MTT Cell Proliferation Kit (R&D systems, Minneapolis, MN). Cells were seeded at 2.5×10^4 per well in 96-well plates in a humidified atmosphere with 5 percent CO2 at 37 degrees Celsius. Twenty-four hours later, decapeptide-12 or oxyresveratrol were added to the corresponding wells at varying concentrations (0, 3, 10, 30, 100, 300, and 1000 micromolar), and cultures were then incubated for 72 hours. The remainder of the procedure was performed following the manufacturer's protocol.
(§1) Proliferation rates for three human cell lines (epidermal progenitors, melanoblasts, and fibroblasts) were determined using a TACS® MTT Cell Proliferation Kit. Cells were seeded at 2.5×10^4 per well in 96-well plates in a humidified atmosphere with 5 percent CO2 at 37 degrees Celsius. Twenty-four hours later, the decapeptides were added to the corresponding wells at varying concentrations and incubated for 72 hours. The remainder of the procedure was performed following the manufacturer's protocol.

melanoblasts [2] = assay: MTT cell proliferation, melanoblasts; type: cell-based, human
Method: as §1

fibroblasts [3] = assay: MTT cell proliferation, fibroblasts; type: cell-based, human
Method: as §1

epidermal progenitors = assay: Trypan blue cell viability after 7 days, epidermal progenitors; type: cell-based, human; conditions: relative to control (untreated cells)
Method: (§2) The effect of each of the decapeptides upon cell viability was also tested. In particular, cells were incubated with the decapeptide at various concentrations and then counted for viability relative to the control (untreated cells) using trypan blue. Cytotoxicity was measured according to the following formula: [1−(# of cells in control−# of live cells in test sample)/# of cells in control]×100 percent.

melanoblasts [4] = assay: Trypan blue cell viability after 7 days, melanoblasts; type: cell-based, human; conditions: relative to control (untreated cells)
Method: as §2

fibroblasts [5] = assay: Trypan blue cell viability after 7 days, fibroblasts; type: cell-based, human; conditions: 50 μM, relative to control (untreated cells)
Method: as §2

PHA-stimulated PBMC [6] = assay: PHA-stimulated PBMC proliferation; type: cell-based, human; conditions: PHA 72 hours
Method: (§3) Cryopreserved human PBMCs were purchased from Astarte Biologics (Redmond, Washington, USA), activated with phytohemagglutinin (PHA), and proliferation assessed. Interleukin (IL)-2 activated human NK cell cytotoxic killing of human K562 cells was assessed using a CytoTox96 non-radioactive cytotoxicity assay kit (Promega). Protease inhibitor was added to the media to prevent degradation of decapeptide-12.
(§4) Three independent trials were performed for each experiment. Microsoft Excel (Seattle, Washington) was used to calculate means and standard errors and statistical significance was determined using unpaired analysis of variance or two-tailed student T-test. P values <0.05 were taken to be statistically significant.
The effects of decapeptide-12 and oxyresveratrol on PBMC proliferation rates after exposure to PHA for 72 hours, were explored.

[7] = test system: IL-2 activated human NK cell cytotoxic killing of human K562 cells; assay: NK cytotoxic killing of K562 cells (CytoTox96); type: cell-based
Method: as §3, §4
The impact of decapeptide-12 on IL-2 primed NK-mediated cytotoxic killing of K562 cells, was also assessed.

PHA-stimulated PBMC [8] = conditions: 0.1 millimolar; cited from earlier work

Row | Molecule | epidermal progenitor proliferation rate after 72 hours ([1]; 3 μM) | epidermal progenitor proliferation rate after 72 hours ([1]; 10 μM) | epidermal progenitor proliferation rate after 72 hours ([1]; 30 μM) | epidermal progenitor proliferation rate after 72 hours ([1]; 50 μM) | epidermal progenitor proliferation rate after 72 hours ([1]; 100 μM) | epidermal progenitor proliferation rate after 72 hours ([1]; 300 μM) | epidermal progenitor proliferation rate after 72 hours ([1]; 500 μM) | epidermal progenitor proliferation rate after 72 hours ([1]; 1000 μM) | melanoblast proliferation rate after 72 hours (melanoblasts [2]; 3 μM) | melanoblast proliferation rate after 72 hours (melanoblasts [2]; 10 μM) | melanoblast proliferation rate after 72 hours (melanoblasts [2]; 30 μM) | melanoblast proliferation rate after 72 hours (melanoblasts [2]; 50 μM) | melanoblast proliferation rate after 72 hours (melanoblasts [2]; 100 μM) | melanoblast proliferation rate after 72 hours (melanoblasts [2]; 300 μM) | melanoblast proliferation rate after 72 hours (melanoblasts [2]; 500 μM) | melanoblast proliferation rate after 72 hours (melanoblasts [2]; 1000 μM) | fibroblast proliferation rate after 72 hours (fibroblasts [3]; 3 μM) | fibroblast proliferation rate after 72 hours (fibroblasts [3]; 10 μM) | fibroblast proliferation rate after 72 hours (fibroblasts [3]; 30 μM) | epidermal progenitor viability after 7 days (epidermal progenitors; 10 μM) | further results
1 | CCCCCCCCCCCCCCCC(=O)N[C@@H](Cc1ccc(O)cc1)C(=O)N[C@@H](CCCNC(=N)N)C(=O)N[C@@H](CO)C(=O)N[C@@H](CCCNC(=N)N)C(=O)N[C@@H](CCCCN)C(=O)N[C@@H](Cc1ccc(O)cc1)C(=O)N[C@@H](CO)C(=O)N[C@@H](CO)C(=O)N[C@@H](Cc1c[nH]c2ccccc12)C(=O)N[C@@H](Cc1ccc(O)cc1)C(N)=O [P4A, Palmitoyl-YRSRKYSSWY-amide] (Palmitoyl-YRSRKYSSWY-NH2) | 99 ± 1% | 99 ± 1% | 98 ± 1% | 97 ± 1% | 97 ± 2% | 96 ± 2% | 96 ± 2% | 94 ± 2% | 100% | 100% | 99 ± 1% | 98 ± 1% | 97 ± 2% | 97 ± 2% | 96 ± 2% | 95 ± 2% | 100% | 99 ± 1% | 98 ± 1% | 99 ± 1% | fibroblast proliferation rate after 72 hours (fibroblasts [3]; 50 μM): 98 ± 1%; fibroblast proliferation rate after 72 hours (fibroblasts [3]; 100 μM): 97 ± 2%; fibroblast proliferation rate after 72 hours (fibroblasts [3]; 300 μM): 97 ± 2%; fibroblast proliferation rate after 72 hours (fibroblasts [3]; 500 μM): 96 ± 2%; fibroblast proliferation rate after 72 hours (fibroblasts [3]; 1000 μM): 95 ± 2%; melanoblast viability after 7 days (melanoblasts [4]; 10 μM): 99 ± 1%; melanoblast viability after 7 days (melanoblasts [4]; 50 μM): 98 ± 1%; melanoblast viability after 7 days (melanoblasts [4]; 100 μM): 97 ± 2%; fibroblast viability after 7 days (fibroblasts [5]): 98 ± 1%
2 | CCCCCCCCCCCCCCCC(=O)N[C@@H](Cc1ccc(O)cc1)C(=O)N[C@@H](CCCNC(=N)N)C(=O)N[C@@H](CO)C(=O)N[C@@H](CCCNC(=N)N)C(=O)N[C@@H](CCCCN)C(=O)N[C@H](Cc1ccc(O)cc1)C(=O)N[C@@H](CO)C(=O)N[C@@H](CO)C(=O)N[C@@H](Cc1c[nH]c2ccccc12)C(=O)N[C@@H](Cc1ccc(O)cc1)C(N)=O [P4B, Palmitoyl-YRSRK[*Y]SSWY-amide] (Palmitoyl-YRSRK[dY]SSWY-NH2) | 99 ± 1% | 99 ± 1% | 98 ± 1% | 98 ± 1% | 97 ± 1% | 97 ± 1% | 95 ± 2% | 94 ± 2% | 100% | 100% | 99 ± 1% | 98 ± 1% | 97 ± 2% | 96 ± 2% | 95 ± 2% | 94 ± 2% | 100% | 99 ± 1% | 99 ± 1% | 99 ± 1% | fibroblast proliferation rate after 72 hours (fibroblasts [3]; 50 μM): 99 ± 1%; fibroblast proliferation rate after 72 hours (fibroblasts [3]; 100 μM): 98 ± 2%; fibroblast proliferation rate after 72 hours (fibroblasts [3]; 300 μM): 97 ± 2%; fibroblast proliferation rate after 72 hours (fibroblasts [3]; 500 μM): 96 ± 2%; fibroblast proliferation rate after 72 hours (fibroblasts [3]; 1000 μM): 96 ± 2%; epidermal progenitor viability after 7 days (epidermal progenitors; 50 μM): 98 ± 1%; epidermal progenitor viability after 7 days (epidermal progenitors; 100 μM): 97 ± 1%
3 | Oc1cc(O)cc(/C=C/c2ccc(O)cc2O)c1 [oxyresveratrol] | – | – | – | – | – | – | – | – | – | – | – | – | – | – | – | – | – | – | – | – | reduction in proliferation ([1]; 1 millimolar (1000 micromolar), 72 hours, epidermal progenitors): 12±2%; reduction of PHA-stimulated PBMC proliferation (PHA-stimulated PBMC [6]; 0.1 millimolar): 35.3±1.8%; reduction of PHA-stimulated PBMC proliferation (PHA-stimulated PBMC [6]; 0.3 millimolar): progressively less inhibition; reduction of PHA-stimulated PBMC proliferation (PHA-stimulated PBMC [6]; 1 millimolar): progressively less inhibition; reduction of PHA-stimulated PBMC proliferation (PHA-stimulated PBMC [6]; 3 millimolar): 14.7±3.4%; reduction of NK killing of K562 cells ([7]; 0.1 millimolar, E:T ratio 10:1): 88.7±1.8%; reduction of NK killing of K562 cells ([7]; 0.1 millimolar, E:T ratio 30:1): 72.8±1.9%; reduction of NK killing of K562 cells ([7]; 0.3 millimolar, E:T ratio 10:1): 86.1±0.9%; reduction of NK killing of K562 cells ([7]; 0.3 millimolar, E:T ratio 30:1): 64.0±3.4%
4 | Oc1ccc(C=Cc2cc(O)cc(O)c2)cc1 [resveratrol] | – | – | – | – | – | – | – | – | – | – | – | – | – | – | – | – | – | – | – | – | inhibition of PHA-induced proliferation (PHA-stimulated PBMC [8]): inhibits
5 | Ac-YRSRKYSSWY-NH2 [P4C, Acetyl-YRSRKYSSWY-amide] | 99 ± 1% | 99 ± 1% | 98 ± 1% | 98 ± 1% | 97 ± 1% | 97 ± 1% | 96 ± 2% | 96 ± 2% | 100% | 100% | 99 ± 1% | 98 ± 1% | 97 ± 2% | 96 ± 3% | 95 ± 2% | 95 ± 2% | 100% | 99 ± 1% | 99 ± 1% | 99 ± 1% | fibroblast proliferation rate after 72 hours (fibroblasts [3]; 50 μM): 99 ± 1%; fibroblast proliferation rate after 72 hours (fibroblasts [3]; 100 μM): 98 ± 2%; fibroblast proliferation rate after 72 hours (fibroblasts [3]; 300 μM): 97 ± 2%; fibroblast proliferation rate after 72 hours (fibroblasts [3]; 500 μM): 96 ± 2%; fibroblast proliferation rate after 72 hours (fibroblasts [3]; 1000 μM): 96 ± 2%; epidermal progenitor viability after 7 days (epidermal progenitors; 30 μM): 98 ± 1%; epidermal progenitor viability after 7 days (epidermal progenitors; 1000 μM): 94 ± 3%; melanoblast viability after 7 days (melanoblasts [4]; 10 μM): 99 ± 1%; melanoblast viability after 7 days (melanoblasts [4]; 100 μM): 97 ± 2%; melanoblast viability after 7 days (melanoblasts [4]; 300 μM): 96 ± 3%
6 | YRSRKYSSWY [P4, YRSRKYSSWY] | – | – | – | – | – | – | – | – | – | – | – | – | – | – | – | – | – | – | – | 99 ± 1% | melanoblast viability after 7 days (melanoblasts [4]; 10 μM): 99 ± 1%; melanoblast viability after 7 days (melanoblasts [4]; 50 μM): 98 ± 1%; melanoblast viability after 7 days (melanoblasts [4]; 1000 μM): 94 ± 2%

From patent US12414978B2, “Tyrosine inhibitors with immunosuppressive activity in human neonatal keratinocyte progenitors” (ESCAPE THERAPEUTICS, INC., priority 2019, dated 2025)
